Test results taken from US8871728B2, “Non-peptide macrocyclic histone deacetylese (HDAC) inhibitors and methods of making and using thereof” (Georgia Tech Research Corporation, priority 2007, dated 2014).

Legend:
[1] = tested on: promastigote stage of L. donovani; experiment: Antileishmanial Alamar blue fluorometric assay; type: cell-based; settings: promastigotes
Description: (§1) The compounds described herein were also evaluated for parasitic activity against Plasmodium falciparum and Leismania donovani. P. falciparum and L. donovani are the causative parasites of malaria and leishmaniasis, two human diseases which constitute a serious threat to public health in tropical and sub-tropical countries. Antimalarial activity was evaluated in vitro using chloroquine-sensitive (D6, Sierra Leone) and chloroquine-resistant (W2, Indochina) strains of P. falciparum. Antileishmanial activity was evaluated in vitro against the promastigote stage of L. donovani.
(§2) Plasmodium growth inhibition was determined by a parasite lactate dehydrogenase assay using Malstat reagent. Inhibition of viability of the promastigote stage of L. donovani was determined using standard Alamar blue assay, modified to a fluorometric assay.
(§3) Macrocyclic histone deacetylase inhibitors were evaluated for parasitic activity against Plasmodium falciparum and Leismania donovani. P. falciparum and L. donovani are the causative parasites of malaria and leishmaniasis, two human diseases which constitute a serious threat to public health in tropical and sub-tropical countries. Antimalarial activity was evaluated in vitro using chloroquine-sensitive (D6, Sierra Leone) and chloroquine-resistant (W2, Indochina) strains of P. falciparum. Antileishmanial activity was evaluated in vitro against the promastigote stage of L. donovani.
as §2

HDAC8 = HDAC8 (Homo sapiens (Human), UniProt Q9BY41); experiment: Fluor de Lys HDAC8 inhibition; type: biochemical; settings: for IC50: Table 5, read-out: HDAC 8; for HDAC8: Nuclear Extract Isoform Selectivity: ratio of IC50 HDAC8 to nuclear extract
[2] = tested on: HeLa nuclear extract HDAC1/2; experiment: Fluor de Lys HDAC inhibition, HeLa nuclear extract; type: biochemical, human; settings: HDACs 1 and 2 from HeLa cell nuclear extract; Table 5; read-out: Nuclear Extract
breast cancer (MCF-7) = experiment: Cell viability, MTS colorimetric assay; type: cell-based
Description: (§4) The effect of compounds 56a-e on cancer cell lines: prostate (DU-145), lung (A549), and breast cancer (MCF-7) and a non-transformed cell, human lung fibroblast cell (Hs1.Lu) were also evaluated.

lung (A549) = experiment: Cell viability, MTS colorimetric assay; type: cell-based
Description: as §4

prostate (DU-145) = experiment: Cell viability, MTS colorimetric assay; type: cell-based
Description: as §4

[3] = tested on: Plasmodium falciparum (D6 clone), chloroquine-sensitive; experiment: Plasmodium growth inhibition, parasite lactate dehydrogenase assay (Malstat); type: cell-based; settings: for Plasmodium falciparum (D6 clone) IC50: chloroquine-sensitive; for S.I. D6: selective toxicity index, Vero versus D6
Description: as §1, §2, §3, §2

[4] = tested on: Plasmodium falciparum (W2 clone), chloroquine-resistant; experiment: as above; type: cell-based; settings: for Plasmodium falciparum (W2 clone) IC50: chloroquine-resistant; for S.I. (W2): selective toxicity index, Vero versus W2, value in brackets
Description: as §1, §2, §3, §2

HDAC6 = HDAC6 (Homo sapiens (Human), UniProt Q9UBN7); experiment: Fluor de Lys HDAC6 inhibition; type: biochemical; settings: for IC50: Table 5, read-out: HDAC 6; for HDAC6: Nuclear Extract Isoform Selectivity: ratio of IC50 HDAC6 to nuclear extract
Text: Fluor de Lys™ is a fluorescence based HDAC activity assay comprising a combination of fluorogenic Histone deAcetylase Lysyl substrate and a developer. The kit is a highly sensitive and convenient alternative to radiolabeled, acetylated histones or peptide/HPLC methods for the assay of histone deacetylases. This assay is based on the ability of HeLa nuclear extract, which is enriched in HDAC activity, to mediate the deacetylation of the acetylated lysine side chain of the Fluor de Lys substrate. The assay procedure requires two steps. First, incubation of the HeLa nuclear extract with the Fluor de Lys substrate results in substrate deacetylation and thus sensitizes it to the second step. In the second step, treatment of the deacetylated substrate with the Fluor de Lys developer produces a fluorophore. The substrate-developer reaction, under normal circumstances goes to completion in less than 1 min at 25° C. The kit used was the Fluorimetric Assay/Drug Discovery Kit—AK-500 Manual Fluorescent Assay System available from BIOMOL® International, Plymouth Meeting, Pa.
The ketolides 56 were also evaluated for their HDAC inhibitory activity against HDACs 1 and 2 from HeLa cell nuclear extract, HDAC6, and HDAC8 using the Fluor de Lys assay.

HDAC6, sequence (Q9UBN7 whole entry, canonical isoform): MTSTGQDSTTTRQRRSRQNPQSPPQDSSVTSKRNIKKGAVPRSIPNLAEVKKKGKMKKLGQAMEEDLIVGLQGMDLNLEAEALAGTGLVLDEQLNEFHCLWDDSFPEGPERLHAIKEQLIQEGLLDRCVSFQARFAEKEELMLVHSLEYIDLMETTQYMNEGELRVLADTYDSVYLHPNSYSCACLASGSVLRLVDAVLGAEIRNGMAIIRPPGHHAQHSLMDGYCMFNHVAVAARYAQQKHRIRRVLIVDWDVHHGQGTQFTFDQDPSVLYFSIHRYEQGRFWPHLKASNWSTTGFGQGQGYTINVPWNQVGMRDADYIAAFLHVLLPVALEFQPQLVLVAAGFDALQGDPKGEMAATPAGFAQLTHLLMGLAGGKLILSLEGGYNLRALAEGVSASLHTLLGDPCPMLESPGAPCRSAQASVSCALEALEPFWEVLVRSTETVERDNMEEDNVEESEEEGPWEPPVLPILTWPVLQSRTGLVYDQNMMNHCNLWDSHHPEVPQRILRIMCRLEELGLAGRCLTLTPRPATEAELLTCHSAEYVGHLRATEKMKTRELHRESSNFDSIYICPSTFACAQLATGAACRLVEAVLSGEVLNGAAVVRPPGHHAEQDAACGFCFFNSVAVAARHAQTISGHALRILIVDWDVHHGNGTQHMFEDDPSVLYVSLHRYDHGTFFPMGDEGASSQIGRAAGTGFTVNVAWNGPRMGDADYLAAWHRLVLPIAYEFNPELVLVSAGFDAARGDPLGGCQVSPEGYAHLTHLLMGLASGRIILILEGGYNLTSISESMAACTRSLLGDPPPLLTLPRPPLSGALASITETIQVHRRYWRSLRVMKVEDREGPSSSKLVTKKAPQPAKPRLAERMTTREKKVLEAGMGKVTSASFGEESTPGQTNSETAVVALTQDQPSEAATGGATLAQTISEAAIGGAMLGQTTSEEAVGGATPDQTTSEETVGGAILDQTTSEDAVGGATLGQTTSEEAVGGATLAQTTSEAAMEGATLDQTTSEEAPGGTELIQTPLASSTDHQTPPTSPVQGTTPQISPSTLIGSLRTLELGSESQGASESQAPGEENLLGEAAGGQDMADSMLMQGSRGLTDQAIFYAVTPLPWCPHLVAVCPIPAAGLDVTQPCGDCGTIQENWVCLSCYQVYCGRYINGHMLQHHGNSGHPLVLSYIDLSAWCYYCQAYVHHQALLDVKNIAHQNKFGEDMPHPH
HDAC8, sequence (Q9BY41 whole entry, canonical isoform): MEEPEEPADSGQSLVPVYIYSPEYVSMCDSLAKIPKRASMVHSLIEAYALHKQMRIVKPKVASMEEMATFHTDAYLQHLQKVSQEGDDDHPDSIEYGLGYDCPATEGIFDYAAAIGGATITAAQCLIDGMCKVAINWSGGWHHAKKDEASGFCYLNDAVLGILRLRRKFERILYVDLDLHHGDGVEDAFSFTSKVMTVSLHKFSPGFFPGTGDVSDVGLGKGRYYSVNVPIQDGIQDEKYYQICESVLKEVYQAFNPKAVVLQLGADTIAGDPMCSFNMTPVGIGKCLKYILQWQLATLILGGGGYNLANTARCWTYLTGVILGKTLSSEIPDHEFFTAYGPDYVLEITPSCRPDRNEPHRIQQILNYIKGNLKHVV

SMILES: CCC1OC(=O)C(C)C(=O)C(C)C(OC2OC(C)CC(N(C)Cc3ccc(-c4cn(CCCCCCCCC(=O)NO)nn4)cc3)C2O)C(C)(OC)CC(C)C2=NCCN3C(=O)OC1(C)C3C2C (stereo not drawn) [Compound 56d, Tricyclic Ketolide-N-benzyltriazolylnonahydroxamic acid]
- Antileshmanial activity IC50 [1]: 14 µg/mL
- Antileshmanial activity IC90 [1]: 32 µg/mL
- IC50 (HDAC8): 2860 nM
- HDAC8: Nuclear Extract Isoform Selectivity (HDAC8): 17.5
- IC50 [2]: 164 nM
- EC50 (breast cancer (MCF-7)): 2560 nM
- EC50 (lung (A549)): 2480 nM
- EC50 (prostate (DU-145)): 3890 nM
- Plasmodium falciparum (D6 clone) IC50 [3]: 1.20 µg/mL
- S.I. D6 [3]: > 4.0
- Plasmodium falciparum (W2 clone) IC50 [4]: 1.30 µg/mL
- S.I. (W2) [4]: > 3.7
- IC50 (HDAC6): 1920 nM
- HDAC6: Nuclear Extract Isoform Selectivity (HDAC6): 11.7

SMILES: CCC1OC(=O)C(C)C(=O)C(C)C(OC2OC(C)CC(N(C)Cc3ccc(-c4cn(CCCCCCCC(=O)NO)nn4)cc3)C2O)C(C)(OC)CC(C)C2=NCCN3C(=O)OC1(C)C3C2C (stereo not drawn) [Compound 56c, Tricyclic Ketolide-N-benzyltriazolyloctahydroxamic acid]
- Antileshmanial activity IC50 [1]: 19 µg/mL
- Antileshmanial activity IC90 [1]: 36 µg/mL
- IC50 (HDAC8): 1910 nM
- HDAC8: Nuclear Extract Isoform Selectivity (HDAC8): 18.3
- IC50 [2]: 104 nM
- EC50 (breast cancer (MCF-7)): 1350 nM
- EC50 (lung (A549)): 1640 nM
- EC50 (prostate (DU-145)): 3700 nM
- Plasmodium falciparum (D6 clone) IC50 [3]: 1.20 µg/mL
- S.I. D6 [3]: > 4.0
- Plasmodium falciparum (W2 clone) IC50 [4]: 1.50 µg/mL
- S.I. (W2) [4]: > 3.2
- IC50 (HDAC6): 1710 nM
- HDAC6: Nuclear Extract Isoform Selectivity (HDAC6): 16.4

SMILES: CCC1OC(=O)C(C)C(=O)C(C)C(OC2OC(C)CC(N(C)Cc3ccc(-c4cn(CCCCCCCCCC(=O)NO)nn4)cc3)C2O)C(C)(OC)CC(C)C2=NCCN3C(=O)OC1(C)C3C2C (stereo not drawn) [Compound 56e, Tricyclic Ketolide-N-benzyltriazolyldecahydroxamic acid]
- Antileshmanial activity IC50 [1]: 4.8 µg/mL
- Antileshmanial activity IC90 [1]: 23 µg/mL
- IC50 (HDAC8): 4560 nM
- HDAC8: Nuclear Extract Isoform Selectivity (HDAC8): 21.9
- IC50 [2]: 208 nM
- EC50 (breast cancer (MCF-7)): 3680 nM
- EC50 (lung (A549)): 2810 nM
- EC50 (prostate (DU-145)): 4830 nM
- Plasmodium falciparum (D6 clone) IC50 [3]: 1.20 µg/mL
- S.I. D6 [3]: > 4.0
- Plasmodium falciparum (W2 clone) IC50 [4]: 0.84 µg/mL
- S.I. (W2) [4]: > 5.7
- IC50 (HDAC6): 3200 nM
- HDAC6: Nuclear Extract Isoform Selectivity (HDAC6): 15.4
